Test results published in ChEMBL document CHEMBL6078716, “Advances in Psychedelic Therapeutics: Novel Prodrugs and Derivatives for Enhanced Mental Health Treatment” (ACS Med Chem Lett, 2024).

Tests used:
[1] = target: T1, 5-hydroxytryptamine receptor 1A (Homo sapiens, UniProt P08908); test: Binding affinity to 5-HT1A receptor (unknown origin) expressed in HEK293 cells assessed as inhibition constant; format: cell-based
T1 sequence (P08908 whole entry): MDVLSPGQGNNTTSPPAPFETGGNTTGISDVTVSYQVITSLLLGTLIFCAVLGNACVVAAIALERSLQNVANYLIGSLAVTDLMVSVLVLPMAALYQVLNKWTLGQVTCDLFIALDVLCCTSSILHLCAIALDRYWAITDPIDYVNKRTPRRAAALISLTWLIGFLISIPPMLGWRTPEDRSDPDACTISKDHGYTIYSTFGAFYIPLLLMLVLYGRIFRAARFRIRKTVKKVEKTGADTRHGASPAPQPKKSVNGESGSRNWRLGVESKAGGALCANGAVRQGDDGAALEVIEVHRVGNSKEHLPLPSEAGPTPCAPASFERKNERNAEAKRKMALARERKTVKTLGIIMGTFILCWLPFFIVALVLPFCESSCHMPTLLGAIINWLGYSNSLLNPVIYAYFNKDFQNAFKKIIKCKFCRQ

[2] = target: 5-hydroxytryptamine receptor 2A (Homo sapiens, UniProt P28223); test: Binding affinity to 5-HT2A receptor (unknown origin) expressed in HEK293 cells assessed as inhibition constant; format: cell-based
Sequence of 5-hydroxytryptamine receptor 2A (P28223 whole entry): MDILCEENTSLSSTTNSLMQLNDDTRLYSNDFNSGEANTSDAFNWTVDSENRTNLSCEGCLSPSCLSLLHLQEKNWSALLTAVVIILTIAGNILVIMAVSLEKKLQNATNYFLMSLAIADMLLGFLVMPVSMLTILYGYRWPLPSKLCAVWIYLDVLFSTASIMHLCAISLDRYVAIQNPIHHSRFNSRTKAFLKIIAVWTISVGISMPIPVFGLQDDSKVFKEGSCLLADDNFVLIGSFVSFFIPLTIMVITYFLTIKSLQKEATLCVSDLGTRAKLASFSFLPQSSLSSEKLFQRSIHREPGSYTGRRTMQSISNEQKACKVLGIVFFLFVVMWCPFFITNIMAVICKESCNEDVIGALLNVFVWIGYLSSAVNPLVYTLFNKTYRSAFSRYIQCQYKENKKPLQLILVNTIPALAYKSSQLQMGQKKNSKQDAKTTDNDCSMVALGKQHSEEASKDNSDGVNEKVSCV

CN(C)CCc1c[nH]c2cccc(O)c12 [PSILOCIN]
Ki [1]: 0.567 µM

CN(C)CCc1c[nH]c2cccc(OP(=O)(O)O)c12 [PSILOCYBIN]
Ki [2]: > 10 µM
Ki [1]: > 10 µM
